These results are taken from patent US9345789B2, “Specific inhibitors and active site probes for legumain” (The Board of Trustees of the Leland Stanford Junior …, priority 2009, dated 2016).

Values joined by “and” are separate entries in the source; they are usually repeats but may differ in a detail not shown here. Equal values may be shown once. Read-outs that look alike come from different tables or passages of the source. Where only a bound is given, the exact number is not on record here.

For one test, the target named is cathepsin L (Homo sapiens (Human), UniProt P07711). The experiment in a line: Inhibition of cathepsin L, fluorogenic substrate Cbz-Phe-Arg-AMC.
Chain of cathepsin L (P07711 114-333, species assumed): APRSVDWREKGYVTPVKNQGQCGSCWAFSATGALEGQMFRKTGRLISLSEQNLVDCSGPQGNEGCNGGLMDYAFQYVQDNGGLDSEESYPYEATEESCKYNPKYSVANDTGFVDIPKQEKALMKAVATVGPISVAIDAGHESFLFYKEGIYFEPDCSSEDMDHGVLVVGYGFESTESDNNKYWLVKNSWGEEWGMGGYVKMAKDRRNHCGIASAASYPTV
The next test deals with cathepsin B (Homo sapiens (Human), UniProt P07858). Briefly: Inhibition of cathepsin B, fluorogenic substrate Cbz-Phe-Arg-AMC.
The next test has as its target caspase-3 (Homo sapiens (Human), UniProt P42574). The experiment in a line: Inhibition of caspase-3, Caspase-3 Substrate VII. As to conditions: read-out: Caspase-3 IC50; at 30 min.
The target in the next test is recombinant legumain (Homo sapiens (Human), UniProt Q99538). The experiment in a line: Inhibition of recombinant legumain, fluorogenic substrate Cbz-Ala-Ala-Asn-AMC. As to conditions: for IC50: at 60 min. Format: biochemical. As for the experimental part: (§1) Assay buffers consist of 20 mM citric acid, 60 mM disodium hydrogen orthophosphate, 1 mM EDTA, 0.1% CHAPS, 4 mM DTT, pH 5.8 for legumain, 50 mM dihydrogen sodium orthophosphate, 1 mM EDTA, 5 mM DTT, pH 6.25 for cathepsin B and cathepsin Land 100 mM Tris, 0.1% CHAPS, 10% sucrose, 10 mM DTT, pH 7.4 for caspase-3.
Chain of recombinant legumain (Q99538 18-433, species assumed): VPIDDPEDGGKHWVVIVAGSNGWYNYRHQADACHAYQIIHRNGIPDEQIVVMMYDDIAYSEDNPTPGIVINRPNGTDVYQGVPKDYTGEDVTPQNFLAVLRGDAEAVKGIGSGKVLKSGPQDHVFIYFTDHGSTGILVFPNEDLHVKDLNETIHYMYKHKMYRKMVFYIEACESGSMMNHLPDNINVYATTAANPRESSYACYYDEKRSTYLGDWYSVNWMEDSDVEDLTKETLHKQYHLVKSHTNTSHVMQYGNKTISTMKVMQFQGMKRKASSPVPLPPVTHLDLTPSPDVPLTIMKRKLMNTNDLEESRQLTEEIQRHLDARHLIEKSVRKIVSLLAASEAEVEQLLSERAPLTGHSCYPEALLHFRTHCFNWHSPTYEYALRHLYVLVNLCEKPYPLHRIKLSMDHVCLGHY
Second-order inhibition rate constants were determined by following the previously described method in the literature (6). The pseudo-first-order rate constants (kobs) were obtained from plots of In vJ Vo versus time where Vo is the rate of hydrolysis of fluorogenic substrate and Vt is the rate of hydrolysis of substrate in the presence of the inhibitor. The second-order inhibition rate constants were calculated using the following equation. Second order rate constant=(kobs1[I])(1+[S]/Km)

Test [1] relates to caspase 3, cathepsin B or cathepsin L. Briefly: Selectivity: inhibition of enzymes other than legumain. Format: biochemical. The note with it: for inhibitory effect against other enzymes: even at millimolar concentrations. Here is the method:
Disclosed below are activity based probes, i.e., they only label active enzyme. The probes are specific for legumain, and may be used to inhibit or inhibit and label active enzyme in situ. […] It may be said, for example, the activity towards legumain will be on the order of at least 3 times greater for legumain than caspase 3, cathepsin B or cathepsin L, preferably at least 10 times greater, and even 100 times greater.
as §1

The subject of test [2] is cathepsins. The experiment in a line: Off-target labeling of cathepsins in intact RAW 264.7 macrophages. Format: cell-based. As to conditions: for cross reactivity towards lysosomal cathepsins: intact RAW 264.7 macrophages; for labeling of cathepsins: high concentrations. As for the experimental part: Immunoprecipitation of cathepsins in intact raw 264.7 cells. […] High concentration of LP-1 was used to bring out all the off-target labeling in intact cells.
RAW 264.7 macrophages (600,000 cells/well) were seeded in a 6 well plate 24 hrs prior to labeling. […] High concentration of LP-1 was used to bring out all the off-target labeling in intact cells. Cells were washed with PBS buffer and lysed by addition of citrate-phosphate lysis buffer (50 mM citrate-phosphate, 1% CHAPS, 0.5% Triton, 5 mM DTT, pH 4.5). 20 μL of crude lysates were diluted to […] in RIPA buffer (phosphate-buffered saline, 0.5% NP-40, 1 mM EDTA, pH 7.4). Anti-mouse cathepsin B (E Weber Halle), anti-mouse cathepsin L (R&D Systems), anti-goat cathepsin S (Abchem) and anti-human cathepsin S (R&D Systems) were added and mixed for 15 mM at 0° C. 40 μL of Protein A/G Plus Agarose beads (Santa Cruz Biotechnology) were added and mixed overnight at 4° C. Samples were spun down and supernatant and beads were separated. Beads were washed with RIPA buffer and boiled after addition of sample buffer 2× (20% glycerol, 100 mM Tris HCl, pH 6.8, 6% SDS, and 10% b-mercaptoethanol). Acetone was added to the supernatant and kept at −80° C. for 2 h. Precipitated proteins were collected by centrifugation in the cold for 30 min, dried, and dissolved by boiling in sample buffer. Samples without immunoprecipitation (input), pellets (P) and supernatant (S) were separated on a 12.5% SDS-PAGE and visualized by scanning of the gel with a Typhoon flatbed laser scanner (excitation/emission 633/680 nm).
We treated intact NIH-3T3 and RAW 264.7 cells with LP-1 and LP-O respectively and monitored protein labeling using SDS-PAGE followed by scanning of the gel to detect the Cy5 fluorescence (FIG. 2). […] The identity of these off targets as cathepsins was confirmed by pre-treatment of cells with the broad-spectrum cathepsin inhibitor JPM-OEt (21) and further verified by immunoprecipitation (FIG. 16). Although some degree of cross reactivity of AOMK probes towards cathepsins has been reported (15), attempts to inhibit cathepsins with various aza-epoxide inhibitors have been unsuccessful (22). Therefore, the labeling of cathepsins by LP-I was particularly surprising. […] Furthermore, when cells were pre-treated with legumain inhibitors we observed more intense cathepsin labeling. […]
RAW 264.7 cells (250,000 cells/well) and NIH-3T3 cells (200,000 cells/well) were seeded in a 24 well plate 24-30 hrs prior to labeling. […] Labeled proteins were analyzed by scanning the gel with a Typhoon flatbed laser scanner (ex. 633 nM/em. 680 nM). […] The labeled samples were separated by 12.5% SDS-PAGE and analyzed by scanning the gel with a Typhoon flatbed scanner.

For test [3], the target named is T1, legumain (Mus musculus (Mouse), UniProt O89017). The experiment in a line: Labeling of active legumain in intact NIH-3T3 fibroblasts (SDS-PAGE, Cy5 scan). Format: cell-based. From the text:
We treated intact NIH-3T3 and RAW 264.7 cells with LP-1 and LP-O respectively and monitored protein labeling using SDS-PAGE followed by scanning of the gel to detect the Cy5 fluorescence (FIG. 2). […] The identity of these off targets as cathepsins was confirmed by pre-treatment of cells with the broad-spectrum cathepsin inhibitor JPM-OEt (21) and further verified by immunoprecipitation (FIG. 16). Although some degree of cross reactivity of AOMK probes towards cathepsins has been reported (15), attempts to inhibit cathepsins with various aza-epoxide inhibitors have been unsuccessful (22). Therefore, the labeling of cathepsins by LP-I was particularly surprising. […] Furthermore, when cells were pre-treated with legumain inhibitors we observed more intense cathepsin labeling. This could be explained by the fact that cathepsins are known to be substrates for legumain (3, 23), thus legumain inhibition could result in increased levels of cathepsins and therefore increased non-specific labeling by the legumain probes.
(§2) RAW 264.7 cells (250,000 cells/well) and NIH-3T3 cells (200,000 cells/well) were seeded in a 24 well plate 24-30 hrs prior to labeling. Cells were pre-treated with appropriate inhibitors for 1.5 hrs and labeled by addition of each probe for 1 hrs; the final DMSO concentration was maintained less than 0.2%. Cells were washed with PBS buffer and lysed by addition of sample buffer. Crude lysates were collected and separated by 12.5% SDS-PAGE. Labeled proteins were analyzed by scanning the gel with a Typhoon flatbed laser scanner (ex. 633 nM/em. 680 nM). For lysates labeling, cytosolic lysates of RAW 264.7 cells were prepared as previously described (29). Lysates were diluted to 1 mg/ml in 50 mM citrate phosphate buffer (pH 4.5), 0.1% CHAPS, 5 mM DTT and subjected to direct labeling. 25˜L of lysates samples were pre-treated with inhibitors for 30 min and labeled with probes for another 30 min. The labeled samples were separated by 12.5% SDS-PAGE and analyzed by scanning the gel with a Typhoon flatbed scanner.
Target sequence in this assay (O89017 18-325): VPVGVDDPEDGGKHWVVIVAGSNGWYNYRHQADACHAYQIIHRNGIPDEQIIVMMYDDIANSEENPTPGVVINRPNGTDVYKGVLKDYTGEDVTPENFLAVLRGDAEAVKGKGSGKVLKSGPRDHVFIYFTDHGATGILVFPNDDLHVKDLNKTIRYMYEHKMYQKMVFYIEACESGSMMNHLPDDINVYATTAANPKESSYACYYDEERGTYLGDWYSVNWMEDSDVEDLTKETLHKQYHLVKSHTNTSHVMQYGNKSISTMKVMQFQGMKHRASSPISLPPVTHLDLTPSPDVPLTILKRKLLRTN

In test [4] the target is T1, legumain. Briefly: Ex vivo imaging of organs and SDS-PAGE analysis of organ lysates. Format: in vivo, mice. As for the experimental part:
(§3) In vivo/ex vivo imaging and SDS-PAGE analysis of organ lysates was conducted as follows: Tumor bearing mice were prepared by following the previously described method (24). C2C12/Hras1 or MDA-MB 231 MFP cells ([…]) were injected subcutaneously on 4-8 week old male BALB/c nude mice. 14 days after transplantation, each probe (25 nmol in 100˜L of sterile PBS) was injected via the tail vein into tumor-bearing mice. Mice were imaged at various time points after injection using the IVIS 200 imaging system equipped with a Cy5.5 filter. Relative fluorescence of equal-sized areas of tumor and background were measured using Living Image software (Caliper life science). Upon finishing the last time point of imaging, mice were anesthetized and sacrificed by cervical dislocation. Tumors, livers, kidneys and spleens were collected and imaged ex vivo by using the FMT 2500 with a Cy5 filter. After ex vivo imaging, organs were lysed by a dounce homogenizer in muscle lysis buffer (1% Triton X-100, 0.1% SDS, 0.5% sodium deoxycholate, 0.2% sodium azide in PBS, pH 7.2). Total protein extracts (100˜g each) were separated by SDS-PAGE and visualized by scanning the gel with a Typhoon flatbed laser scanner.
Target sequence in this assay (O89017 18-435): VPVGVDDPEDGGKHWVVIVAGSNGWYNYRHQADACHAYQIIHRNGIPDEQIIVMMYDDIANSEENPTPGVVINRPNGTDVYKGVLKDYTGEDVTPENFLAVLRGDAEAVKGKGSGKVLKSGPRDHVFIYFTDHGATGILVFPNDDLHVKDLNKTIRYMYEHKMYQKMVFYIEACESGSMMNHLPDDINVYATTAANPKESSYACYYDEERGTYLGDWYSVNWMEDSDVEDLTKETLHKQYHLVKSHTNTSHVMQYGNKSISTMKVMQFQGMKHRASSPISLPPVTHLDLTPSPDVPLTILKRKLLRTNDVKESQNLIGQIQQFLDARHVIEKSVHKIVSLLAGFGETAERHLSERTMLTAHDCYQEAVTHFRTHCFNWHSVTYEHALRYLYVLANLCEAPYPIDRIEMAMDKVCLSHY

The target of test [5] is T1, legumain. Briefly: In vivo fluorescence imaging of mice bearing C2C12/ras xenograft tumors. As to conditions: IV tail vein, 25 nmol probe. Here is the method:
In order to examine in vivo properties of LP-1 and monitor active legumain levels non-invasively, we performed imaging experiments using a simple tumor xenograft model (C2C 1 2/Hras 1)(24). […] Mice were injected with the probes via tail vein and fluorescent images were collected over the course of 5 hrs. […] Furthermore, the specific legumain signal was reduced to background levels after 120 min. This is in contrast to the previously reported cathepsin probes which only provide contrast after 8-12 hours and signals are retained beyond 48 hours.
as §3
Target sequence in this assay (O89017 18-435): as above

For test [6], the target named is T1, legumain. Briefly: Direct labeling of legumain in RAW cell lysates. Format: biochemical. As for the experimental part:
as §2
Target sequence in this assay (O89017 18-435): as above
We believe that this cross-reactivity results from increased lysosomal uptake and is not the result of a loss of specificity as the result of addition of the tat peptide. […] We also performed a competition assay by pre-treating RAW lysates with each probe and labeling with the general cathepsin probe, I^125_DCG04 (25).

The test system of test [7] is cathepsins. The experiment in a line: Competitive inhibition of cathepsins in RAW cell lysates, labeled by 125I-DCG04. As to conditions: competition with 125I-DCG04. In kind it is biochemical.
Excerpt: To test this hypothesis, we labeled RAW cell lysates with LP-1 and tLP-1 (FIG. 9).
The mark [8] stands for this setting: read-out: Cathepsin L IC50, at 30 min.

Chain of caspase-3 (P42574 29-175, species assumed): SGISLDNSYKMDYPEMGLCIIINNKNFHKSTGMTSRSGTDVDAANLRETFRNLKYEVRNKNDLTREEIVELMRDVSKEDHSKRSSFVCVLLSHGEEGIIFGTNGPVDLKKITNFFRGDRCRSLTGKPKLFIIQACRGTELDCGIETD
Chain of caspase-3 (P42574 176-277, species assumed): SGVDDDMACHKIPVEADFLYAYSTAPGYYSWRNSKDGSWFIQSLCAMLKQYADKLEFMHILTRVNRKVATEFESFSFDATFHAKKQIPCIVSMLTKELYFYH
Description for caspase-3: Determination of IC50 against cysteine proteases and second order rate constants (kobs1[I]) for legumain Activity of legumain was measured with the fluorogenic substrate, Cbz-Ala-Ala-Asn-AMC (Anaspec), cathepsin B and cathepsin L was measured with Cbz-Phe-Arg-AMC (Bachem), and caspase-3 was measured with Caspase-3 Substrate VII (Calbiochem). […] The increase in fluorescence was continuously monitored every 30 see for 2.5 hrs with a Spectramax M5 fluorescent plate reader (Molecular Devices), and inhibition curves were recorded. […] ICso values with known broad-spectrum cathepsin inhibitor (JPM-OEt) and caspase-3 inhibitor (Z-DEVD-FMK) were also measured for comparison. All measurements were performed in triplicate and the average values were reported.

Take `CCOC(=O)[C@H]1O[C@@H]1C(=O)N[C@@H](CC(C)C)C(=O)NCCc1ccc(O)cc1` [JPM-OEt, reference compound]: the half-maximal inhibitory concentration (IC50) against cathepsin L was 2.98 µM; at cathepsin B, 0.78 µM.

With `CC(=O)N1CCC[C@H]1C(=O)N[C@@H](CC(=O)O)C(=O)COC(=O)c1c(C)cccc1C` [LI-0, reference compound], the 50% inhibitory concentration (IC50) on caspase-3 is 2.8 µM; at cathepsin L (setting [8]), > 1000 µM; on recombinant legumain it was 0.704 µM; at cathepsin B (read-out: Cathepsin B IC50, at 30 min), > 1000 µM. The “Legumain kobs/[I] (second-order rate constant)” value at recombinant legumain is 1586 M⁻¹ s⁻¹; on recombinant legumain (listed as LI-O), 1585 M⁻¹ s⁻¹.

Regarding `CCOC(=O)[C@@H]1O[C@H]1C(=O)N(CC(N)=O)NC(=O)C1CCCN1C(C)=O` (stereo partly drawn) [LI-1], the half-inhibitory concentration (IC50) at caspase-3 came out at 890 µM; on cathepsin L (setting [8]), 220 µM; at recombinant legumain, 0.0115 µM. The “inhibitory effect against other enzymes” value in test [1] is given as “no inhibitory effect”. Besides, on recombinant legumain, the “Legumain kobs/[I] (second-order rate constant)” value was 72350 M⁻¹ s⁻¹ and 72352 M⁻¹ s⁻¹. Besides, at recombinant legumain (FIG. 18), the “potency and rate of legumain inhibition, comparison of inhibitors” value was “greater potency and rate than either Li-2 or LI-0”.

Regarding `CCOC(=O)/C=C/C(=O)N(CC(N)=O)NC(=O)[C@@H]1CCCN1C(C)=O` [LI-2], the selectivity for legumain result in test [1] (FIG. 18) is on record as “most selective for legumain”. Moreover, in [1], the “inhibitory effect against other enzymes” value is reported as “no inhibitory effect”.

In the case of `CC[N+]1=C(/C=C/C=C/C=C2/N(CCCCCC(=O)NCCCCCC(=O)N3CCC[C@H]3C(=O)N[C@@H](CC(=O)O)C(=O)COC(=O)c3c(C)cccc3C)c3ccc(S(=O)(=O)O)cc3C2(C)C)C(C)(C)c2cc(S(=O)(=O)O)ccc21` [LP-0, reference compound], in the test with cathepsins [2], the “cross reactivity towards lysosomal cathepsins” value is given as “some degree of cross reactivity towards lysosomal cathepsins”. The “labeling of active legumain” value at legumain [3] is “selectively labeled active legumain”.

Turning to `CCOC(=O)C1OC1C(=O)N(CC(N)=O)NC(=O)C1CCCN1C(=O)CCCCCNC(=O)CCCCCN1C(=CC=CC=CC2=[N+](CC)c3ccc(S(=O)(=O)O)cc3C2(C)C)C(C)(C)c2cc(S(=O)(=O)O)ccc21` (stereo not drawn) [LP-1], on legumain [4] (ex vivo organs and SDS-PAGE of lysates), the “legumain labeling in tumors, organ distribution and cathepsin cross reactivity” value is listed as “the most legumain labeling in tumors as well as the highest levels of legumain-specific fluorescent signal”. On legumain [4] (organ extracts, SDS-PAGE), the “selectivity of legumain labeling in vivo” value was “remarkably selective toward legumain in vivo and showed virtually no off-target labeling”. Besides, in the test on cathepsins [2], the labeling of cathepsins result is on record as “labeled cathepsins only at high concentrations or when legumain activity is suppressed” and the “cross reactivity towards lysosomal cathepsins” value is “some degree of cross reactivity towards lysosomal cathepsins”. On legumain [5], the “accumulation / selective uptake in tumor” value was “rapidly accumulated in tumor tissues”, the “time after which specific legumain signal was reduced to background levels” value is given as 120 min and the “time of maximum tumor signal to background ratio” value is “around 90 min”. Also, the reactivity towards legumain entry at legumain [6] is “no difference in reactivity towards legumain”. Besides, the “labeling of active legumain” value at legumain [3] is recorded as “selectively labeled active legumain”. Further, on legumain [3] (listed as LP-I), the “labeling of active legumain” value was “labeled active legumain more efficiently than LP-0 at low probe concentrations”. In addition, the inhibition of cathepsins result in the test on cathepsins [7] is on record as “equally poor inhibitors of the cathepsins”.

Turning to `CCOC(=O)/C=C/C(=O)N(CC(N)=O)NC(=O)[C@@H]1CCCN1C(=O)CCCCCNC(=O)CCCCCN1/C(=C/C=C/C=C/C2=[N+](CC)c3ccc(S(=O)(=O)O)cc3C2(C)C)C(C)(C)c2cc(S(=O)(=O)O)ccc21` [LP-2], the labeling of cathepsins result in the test with cathepsins [2] is listed as “did not label any cathepsins at high concentrations”.
